Values quoted from earlier work as cited in patent publication US20250120988A1, “SMALL MOLECULE COMPOUND FOR TREATING ISCHEMIC STROKE, ITS PREPARATION METHOD, AND APPLICATION” (SHANGHAI SIXTH PEOPLE'S HOSPITAL, priority 2023, published 2025).
pIC50: −log10 of the molar value.

How the values were obtained:
NMDARs = settings: competitive antagonist of NMDARs; read-out: half-blocking dose (IC50) on NMDARs; cited from earlier work
[1] = cited from earlier work
ischemic stroke patients = settings: clinical trials; cited from earlier work

O=C(O)[C@@H]1C[C@H](CP(=O)(O)O)CCN1 (racemic) [Selfotel]
pIC50 (NMDARs): > 6.00
solubility in water [1]: highly soluble in water
patient mortality compared to the control group (ischemic stroke patients): did not significantly reduce patient mortality
psychiatric symptoms in patients (ischemic stroke patients): led to various psychiatric symptoms in patients
